# Results published in patent US20240269238A1, “Therapeutic Regimens and Methods for Reducing Body Weight in a Subject with Fatty Liver Disease using a GLP-1R and GCGR Agonist” (Spitfire Pharma LLC, priority 2022, published 2024).
# Experiments:
# Assay type in all cases: in vivo, human
# [1] = test system: liver fat content; test: Phase 1b 24-week NAFLD study (Example 3): liver fat content and liver volume by MRI-PDFF
# Description: Provided herein is disclosure of a 12-week extension study of the study provided in Example 1, providing a 24-week a Phase 1b, randomized, double-blind, placebo-controlled study to assess the effects of pemvidutide (also termed herein as ALT-801), the safety of pemvidutide and effects on weight loss, hepatic fat fraction, anthropometric parameters, lipid metabolism, as well as inflammatory, fibrosis and other markers in diabetic and non-diabetic (type 2 diabetes) overweight and obese (BMI≥28.0 kg/m^2) subjects with NAFLD (defined as liver fat content (LFC) by MRI-PDFF ≥10%; absence of significant fibrosis, defined as FibroScan® LSM ≤10 kPa), alanine aminotransferase (ALT) and aspartate aminotransferase (AST) laboratory values of ≤75 IU/L and HbA1c <9.5. Men and women aged 18-65 years were studied. Diabetic subjects were defined as those that have undergone stable dose (≥3 months) metformin or SLGT-2 therapy and no use of insulin, sulfonylureas, DPP-4, GLP-1 treatment; Ninety-four (94) subjects were enrolled in the initial 12-week Phase 1b NAFLD trial and 83 subjects who completed were invited to receive a total of 12 additional weeks of blinded treatment. Of those subjects, 66 consented to rollover, of which 64 were eligible to participate.
# The primary endpoint of this study was a reduction in liver fat content (LFC) by MRI-PDFF at Week 24 compared to Week 0 (zero). Key secondary endpoints include percent (%) weight loss at Week 24 compared to Week 0 (zero), and liver inflammation by alanine aminotransferase (ALT) levels and corrected T1 (cT1) imaging at Week 24 as compared to Week 0 (zero). Adverse events (AEs), including serious and severe AEs, AEs leading to discontinuation, GI tolerability, vital signs, and glycemic control including fasting glucose and HbA1c levels were also measured.
# [2] = Phase 1 12-week NAFLD study (Example 1): body weight loss; conditions: for weight loss: week 12; for placebo-adjusted weight loss: 12 weeks
# Description: (§1) Provided herein is disclosure of a Phase 1, multicenter, randomized, double-blind, placebo-controlled study to assess the effects of Pemvidutide (also termed herein as ALT-801), the safety of Pemvidutide and effects on hepatic fat fraction, anthropometric parameters, lipid metabolism, inflammatory markers and fibrosis markers in diabetic and non-diabetic (type 2 diabetes) overweight and obese (BMI 28.0 kg/m^2) subjects with NAFLD. This study was designed to assess changes in hepatic fat fraction by MRI-PDFF (magnetic resonance imaging-proton density fat fraction) in diabetic and non-diabetic overweight and obese subjects with NAFLD after 12 weeks of ALT-801 treatment. The trial was conducted without adjunctive diet and exercise interventions. The study assessed changes in body weight, lipid metabolism, metabolic markers, and inflammatory markers and safety and tolerability of ALT-801 after 12 weeks of treatment. Subjects were stratified for the presence or absence of diabetes at baseline. Fibroscan and cT1 assessments evaluated changes in liver inflammatory and fibrotic activity at the end of 12 weeks of treatment.
# (§2) Overweight and obese volunteers with BMI ≥28 kg/m^2 were studied because this is the typical population of individuals with NAFLD, and these subjects are able to better tolerate the predicted Pharmacodynamics (PD) effect of weight loss and could even benefit from treatment. A hepatic fat fraction of 10% has been typical for the evaluation of hepatic fat fraction in subjects with NAFLD. In other words, individuals with a liver fat fraction of 10% or greater are typically diagnosed with NAFLD. Diabetic subjects that require insulin, sulfonylureas or DDP-4 inhibitors for control of diabetes were excluded in this study. Exclusions were instituted that might otherwise affect an accurate assessment of the effects of ALT-801 on safety or PD. The BMI upper limit is set to 45 kg/m^2 as subjects over this BMI are no likely to fit into the MRI scanner.
# (§3) The study, described in this example, was carried out in 94 subjects overweight and obese (body mass index [BMI] ≥28.0 kg/m^2) Type 2 diabetic and non-diabetic subjects with nonalcoholic fatty liver disease (NAFLD) over about 4.5 months, including up to a 35-day screening period, and 85-day treatment period and a 25-day follow-up period, with treatment with ALT-801 (a composition comprising SEQ ID NO.: 1, “study medication”) or placebo administered by subcutaneous (SC) injection once weekly for up to twelve (12) doses.
# (§4) The safety objective of this study was to assess the safety and tolerability of ALT-801 in 18-65 years old subjects with NAFLD (NAFLD without significant fibrosis, defined as FibroScan® controlled attenuation parameter (CAP) ≥280 dB/m and liver stiffness measurement (LSM)<10 kPa (i.e., indicating the absence of significant fibrosis), magnetic resonance imaging derived proton density fat fraction (MRI-PDFF) ≥10%), hemoglobin Alc (HbAlc) of less than 9.5%, and alanine aminotransferase (ALT) or aspartate aminotransferase (AST) values of ≤[…]. The pharmacodynamic (PD) objectives of this study were to evaluate the effects of ALT-801 on hepatic fat fraction, anthropometric parameters, lipid metabolism, metabolic markers, inflammatory markers, fibrosis markers, and lipotoxicity markers. The pharmacokinetic (PK) objectives of this study were to evaluate the effects of ALT-801 and metformin exposure (drug interactions) on the subjects (e.g., ALT-801 and metformin concentrations in blood over time).
# (§5) After providing informed consent, subjects underwent a screening period of up to 35 days. Subjects were instructed on how to maintain their normal diets, alcohol consumption and physical activities and not to start any new diets, supplements, or exercise programs at any time while participating in the study. […]
# [3] = test system: liver fat content; test: Phase 1 12-week NAFLD study (Example 1): liver fat content by MRI-PDFF; conditions: for absolute reduction in liver fat (MRI-PDFF): week 12, NAFLD; for relative reduction in liver fat (MRI-PDFF) / proportion of patients with at least 30% reduction in liver fat content / proportion of patients with at least 50% reduction in liver fat content / proportion of patients with normalization in liver fat content (equal or below 5%): week 12
# Description: as §1, §2, §3, §4, §5
structure (smiles),measurement,setting,value
"CC[C@H](C)[C@H](NC(=O)[C@H](Cc1ccccc1)NC(=O)[C@H](CCC(=O)O)NC(=O)[C@@H]1CCCCNC(=O)CC[C@H](NC(=O)[C@H](CC(=O)O)NC(=O)[C@H](CC(C)C)NC(=O)[C@H](Cc2ccc(O)cc2)NC(=O)[C@H](CCCCN)NC(=O)[C@H](CO)NC(=O)[C@H](Cc2ccc(O)cc2)NC(=O)[C@H](CC(=O)O)NC(=O)[C@H](CO)NC(=O)[C@@H](NC(=O)[C@H](Cc2ccccc2)NC(=O)[C@@H](NC(=O)CNC(=O)[C@H](CCC(N)=O)NC(=O)C(C)(C)NC(=O)[C@@H](N)Cc2c[nH]cn2)[C@@H](C)O)[C@H](C)O)C(=O)N[C@@H](CCCCNC(=O)C2O[C@@H](OCCCCCCCCCCCCCCCCCC(=O)O)C(O)C(O)[C@@H]2O)C(=O)N[C@@H](C)C(=O)N[C@@H](C)C(=O)N1)C(=O)N[C@@H](CCC(N)=O)C(=O)N[C@@H](Cc1c[nH]c2ccccc12)C(=O)N[C@@H](CC(C)C)C(=O)N[C@@H](CC(C)C)C(=O)N[C@@H](CCC(N)=O)C(=O)N[C@H](C(N)=O)[C@@H](C)O (stereo partly drawn) [ALT-801, Pemvidutide]",mean absolute reduction in liver fat (MRI-PDFF),"[1]; 1.2 mg per week, week 24",11.2%
same,mean relative reduction in liver fat (MRI-PDFF),"[1]; 1.2 mg per week, week 24",56.3%
same,liver fat of an exemplary subject (MRI-PDFF),"[1]; 1.8 mg dose, Week 24, 32.3% at baseline",1.7%
same,mean absolute reduction in liver fat (MRI-PDFF),"[1]; 1.8 mg per week, week 24",17%
same,mean relative reduction in liver fat (MRI-PDFF),"[1]; 1.8 mg per week, week 24",75.2%
same,proportion of subjects with normalization (<=5%) in liver fat content,"[1]; 1.8 mg, week 24",53.8%
same,mean absolute reduction in liver fat (MRI-PDFF),"[1]; 2.4 mg per week, week 24",15.6%
same,mean relative reduction in liver fat (MRI-PDFF),"[1]; 2.4 mg per week, week 24",76.4%
same,proportion of subjects with normalization (<=5%) in liver fat content,"[1]; 2.4 mg, week 24",45.3%
same,relative liver fat reductions (study conclusion),[1]; 24 weeks,greater than 75%
same,liver volume (MRI-PDFF),"[1]; all doses, week 24",robust reduction in liver volume
same,percentage of subjects achieving at least 30% and 50% reduction in liver fat content vs placebo,"[1]; all doses, week 24",highly significant
same,weight loss,"[2]; all subjects, 1.2 mg",3.4%
same,weight loss,"[2]; all subjects, 1.8 mg",4.3%
same,weight loss,"[2]; all subjects, 2.4 mg",3.7%
same,weight loss,"[2]; diabetic subjects, 1.2 mg",3.3%
same,weight loss,"[2]; diabetic subjects, 1.8 mg",3.8%
same,weight loss,"[2]; diabetic subjects, 2.4 mg",4.4%
same,placebo-adjusted weight loss,[2]; diabetic subjects,4.5%
same,weight loss,"[2]; non-diabetic subjects, 1.2 mg",3.4%
same,weight loss,"[2]; non-diabetic subjects, 1.8 mg",4.9%
same,weight loss,"[2]; non-diabetic subjects, 2.4 mg",3.5%
same,placebo-adjusted weight loss,[2]; non-diabetic subjects,4.7%
same,absolute reduction in liver fat (MRI-PDFF),[3]; 1.2 mg SC once weekly,8.9%
same,relative reduction in liver fat (MRI-PDFF),[3]; 1.2 mg once weekly,46.6%
same,proportion of patients with at least 30% reduction in liver fat content,[3]; 1.2 mg,65 % of patients
same,proportion of patients with at least 50% reduction in liver fat content,[3]; 1.2 mg,about 40 % of patients
same,proportion of patients with normalization in liver fat content (equal or below 5%),[3]; 1.2 mg,20 % of patients
same,absolute reduction in liver fat (MRI-PDFF),[3]; 1.8 mg SC once weekly,14.7%
same,relative reduction in liver fat (MRI-PDFF),[3]; 1.8 mg once weekly,68.5%
same,proportion of patients with at least 30% reduction in liver fat content,[3]; 1.8 mg,94.4 % of patients
same,proportion of patients with at least 50% reduction in liver fat content,[3]; 1.8 mg,72.2 % of patients
same,proportion of patients with normalization in liver fat content (equal or below 5%),[3]; 1.8 mg,55.6 % patients
same,absolute reduction in liver fat (MRI-PDFF),[3]; 2.4 mg SC once weekly (4-week titration),11.3%
same,relative reduction in liver fat (MRI-PDFF),[3]; 2.4 mg once weekly,57.1%
same,proportion of patients with at least 30% reduction in liver fat content,[3]; 2.4 mg,85 % of patients
same,proportion of patients with at least 50% reduction in liver fat content,[3]; 2.4 mg,70%
same,proportion of patients with normalization in liver fat content (equal or below 5%),[3]; 2.4 mg,50.0%
same,relative reductions in liver fat (study conclusion),[3]; 12 weeks,> 60%
